Experimental data published in patent US7057048B2, “Androgen receptor antagonists” (Warner Lambert Company LLC, priority 2003, dated 2006).

Biological target: T1, androgen receptor (Homo sapiens, UniProt P10275)
T1 sequence (P10275 1-920 Q868H): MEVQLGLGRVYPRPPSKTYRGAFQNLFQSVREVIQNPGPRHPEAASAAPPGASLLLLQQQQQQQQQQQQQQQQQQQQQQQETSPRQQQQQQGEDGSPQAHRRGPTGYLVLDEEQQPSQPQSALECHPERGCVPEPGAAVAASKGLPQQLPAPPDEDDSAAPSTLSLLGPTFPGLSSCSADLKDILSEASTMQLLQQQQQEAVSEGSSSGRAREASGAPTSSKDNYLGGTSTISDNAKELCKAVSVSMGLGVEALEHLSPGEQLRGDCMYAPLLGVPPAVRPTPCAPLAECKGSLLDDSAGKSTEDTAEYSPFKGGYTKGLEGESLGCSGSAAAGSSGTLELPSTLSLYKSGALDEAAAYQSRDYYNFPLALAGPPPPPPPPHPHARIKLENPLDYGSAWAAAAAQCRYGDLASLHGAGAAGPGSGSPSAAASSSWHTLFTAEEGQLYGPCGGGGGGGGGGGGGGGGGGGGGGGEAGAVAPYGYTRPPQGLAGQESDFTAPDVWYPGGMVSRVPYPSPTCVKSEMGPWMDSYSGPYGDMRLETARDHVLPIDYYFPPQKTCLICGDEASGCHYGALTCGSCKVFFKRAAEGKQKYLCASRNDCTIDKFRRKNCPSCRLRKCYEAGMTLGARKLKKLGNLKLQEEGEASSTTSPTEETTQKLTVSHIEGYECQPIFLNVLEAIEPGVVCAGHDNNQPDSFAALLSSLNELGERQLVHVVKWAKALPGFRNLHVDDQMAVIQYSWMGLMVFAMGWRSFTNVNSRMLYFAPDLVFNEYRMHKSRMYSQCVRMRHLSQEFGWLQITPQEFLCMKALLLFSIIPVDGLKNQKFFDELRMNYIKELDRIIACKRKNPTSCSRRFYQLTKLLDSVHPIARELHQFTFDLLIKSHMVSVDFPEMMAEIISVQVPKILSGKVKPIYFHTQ
Test: AR Antagonist Cell Assay (MMTV-luciferase reporter, DHT-stimulated)
Assay type: cell-based
Details: MDA-MB453-MMTV clone 54-19 cells, inhibition of induction by 100 pM DHT, 17 hr
Description: The compounds ability to antagonize the effects of androgen on the androgen receptor were determined in the protocol described immediately below.
Experimental Procedure for AR Antagonist Cell Assay
Cell line: MDA-MB453-MMTV clone 54-19. This cell line is a stable transfected cell line with MDA-MB453 cell background (human breast tumor cell expressing high level of androgen receptor). A MMTV minimal promoter containing ARE was first cloned in front of a firefly luciferase reporter gene. Then the cascade was cloned into transfection vector pUV120puro. Electroporation method was used for transfecting MDA-MB-453 cell. Puromycin resistant stable cell line was selected.
Cell Culture Media and Reagents:
Culture medium: DMEM (high glucose, Gibco cat #: 11960-044), 10% FBS, and 1% L-glutamine
Plating medium: DMEM (phenol red free), 10% charcoal treated HyClone serum, 1% L-glutamine
Assay medium: DMEM (phenol red free), 1% charcoal treated HyClone serum, 1% L-glutamine, and 1% penicillin/streptomycin
3×luciferase buffer: 2% beta-mercaptoethanol, 0.6% ATP, 0.0135% luciferine in cell lysis buffer
• 1. Cells are maintained in culture medium, splitting cells when they reach 80–90% confluence • 2. To test compounds, 10,000 cells/well are plated to opaque 96 cell culture plate in 100 ul/well plating medium, culture for overnight at 37° C. in cell culture incubator • 3. Carefully remove plating medium, then add 80 ul/well of pre-warmed assay medium, add 10 ul/well testing compound (final concentration at 10 uM or 1 uM), incubate at 37° C. for 30 minutes • 4. Add 10 ul/well freshly prepared DHT (final concentration at 100 pM) to each well, incubate at 37° C. for 17 hr (overnight) • 5. Add 50 ul/well 3×luciferase buffer, incubate at room temperature for 5 minutes, then count on Luminometer
The fold induction over background by 100 pM DHT in the absence of testing compounds is standardized as 100% and experimental result is expressed as percentage of inhibition by testing compounds.

Row | IC50 [µM] | Structure (SMILES)
1 | > 10 | O=c1cc(C(F)(F)F)c2cc(Cc3ccc(S(=O)(=O)N4CCCCC4CCO)cc3)ccc2[nH]1 (stereo not drawn) [Example 17, 6-{4-[2-(2-Hydroxyethyl)piperidine-1-sulfonyl]benzyl}-4-trifluoromethyl-1H-quinolin-2-one]
2 | > 10 | O=c1cc(C(F)(F)F)c2cc(Cc3ccc(S(=O)(=O)N4CCCCC4)cc3)ccc2[nH]1 [Example 23, 6-[4-(Piperidine-1-sulfonyl)benzyl]-4-trifluoromethyl-1H-quinolin-2-one]
3 | 8.9 | O=c1cc(C(F)(F)F)c2cc(Cc3ccc(S(=O)(=O)N4CCN(CCO)CC4)cc3)ccc2o1 [Example 43, 6-{4-[4-(2-Hydroxyethyl)piperazine-1-sulfonyl]benzyl}-4-trifluoromethylchromen-2-one]
4 | > 10 | CN(C)CCN1CCN(S(=O)(=O)c2ccc(Cc3ccc4oc(=O)cc(C(F)(F)F)c4c3)cc2)CC1 [Example 55, 6-{4-[4-(2-Dimethylamino-ethyl)piperazine-1-sulfonyl]benzyl}-4-trifluoromethylchromen-2-one]
5 | > 10 | CC1CCN(S(=O)(=O)c2ccc(Cc3ccc4[nH]c(=O)cc(C(F)(F)F)c4c3)cc2)CC1 [Example 15, 6-[4-(4-Methylpiperidine-1-sulfonyl)benzyl]-4-trifluoromethyl-1H-quinolin-2-one]
6 | > 10 | CCOC(=O)C1CCCN(S(=O)(=O)c2ccc(Cc3ccc4[nH]c(=O)cc(C(F)(F)F)c4c3)cc2)C1 (stereo not drawn) [Example 1, 1-[4-(2-Oxo-4-trifluoromethyl-1,2-dihydroquinolin-6-ylmethyl)benzenesulfonyl]-piperidine-3-carboxylicacid ethyl ester]
7 | 1.2 | COc1cc2c(cc1OC)CN(S(=O)(=O)c1ccc(Cc3ccc4oc(=O)cc(C(F)(F)F)c4c3)cc1)CC2 [Example 35, 6-[4-(6,7-Dimethoxy-3,4-dihydro-1H-isoquinoline-2-sulfonyl)benzyl]-4-trifluoromethylchromen-2-one]
8 | 7.6 | O=c1cc(C(F)(F)F)c2cc(Cc3ccc(S(=O)(=O)N4CCCC(CO)C4)cc3)ccc2o1 (stereo not drawn) [Example 45, 6-[4-(3-Hydroxymethyl-piperidine-1-sulfonyl)benzyl]-4-trifluoromethylchromen-2-one]
9 | 4.7 | O=c1cc(C(F)(F)F)c2cc(Cc3ccc(S(=O)(=O)N4CCCCC4c4cccnc4)cc3)ccc2[nH]1 (stereo not drawn) [Example 14, 6-[4-(3,4,5,6-Tetrahydro-2H-[2,3′]bipyridinyl-1-sulfonyl)benzyl]-4-trifluoromethyl-1H-quinolin-2-one]
10 | > 10 | CCOC(=O)N1CCN(S(=O)(=O)c2ccc(Cc3ccc4oc(=O)cc(C(F)(F)F)c4c3)cc2)CC1 [Example 29, 4-[4-(2-Oxo-4-trifluoromethyl-2H-chromen-6-ylmethyl)-benzenesulfonyl]piperazine-1-carboxylic acid ethylester]
11 | > 10 | CCOCCN1CCN(S(=O)(=O)c2ccc(Cc3ccc4oc(=O)cc(C(F)(F)F)c4c3)cc2)CC1 [Example 62, 6-{4-[4-(2-Ethoxyethyl)piperazine-1-sulfonyl]benzyl}-4-trifluoromethylchromen-2-one]
12 | > 10 | O=c1cc(C(F)(F)F)c2cc(Cc3ccc(S(=O)(=O)N4CCC(N5CCCC5)CC4)cc3)ccc2o1 [Example 30, 6-[4-(4-Pyrrolidin-1-ylpiperidine-1-sulfonyl)benzyl]-4-trifluoromethylchromen-2-one]
13 | 4.2 | O=c1cc(C(F)(F)F)c2cc(Cc3ccc(S(=O)(=O)N4CCCC5CCCCC54)cc3)ccc2o1 (stereo not drawn) [Example 53, 6-[4-(Octahydroquinoline-1-sulfonyl)benzyl]-4-trifluoromethylchromen-2-one]
14 | > 10 | O=c1cc(C(F)(F)F)c2cc(Cc3ccc(S(=O)(=O)N4CCN(CCO)CC4)cc3)ccc2[nH]1 [Example 10, 6-{4-[4-(2-Hydroxyethyl)piperazine-1-sulfonyl]benzyl}-4-trifluoromethyl-1H-quinolin-2-one]
15 | 8.6 | O=c1cc(C(F)(F)F)c2cc(Cc3ccc(S(=O)(=O)N4CCC(O)(c5cccs5)CC4)cc3)ccc2o1 [Example 33, 6-[4-(4-Hydroxy-4-thiophen-2-ylpiperidine-1-sulfonyl)benzyl]-4-trifluoromethylchromen-2-one]
16 | > 10 | O=c1cc(C(F)(F)F)c2cc(Cc3ccc(S(=O)(=O)N4CCCCCCC4)cc3)ccc2o1 [Example 63, 6-[4-(Azocane-1-sulfonyl)benzyl]-4-trifluoromethylchromen-2-one]
17 | > 10 | CCOC(=O)C1CCCN(S(=O)(=O)c2ccc(Cc3ccc4oc(=O)cc(C(F)(F)F)c4c3)cc2)C1 (stereo not drawn) [Example 28, 1-[4-(2-Oxo-4-trifluoromethyl-2H-chromen-6-ylmethyl)-benzenesulfonyl]piperidine-3-carboxylic acid ethylester]
18 | 9.2 | O=c1cc(C(F)(F)F)c2cc(Cc3ccc(S(=O)(=O)N4CCCCCC4)cc3)ccc2[nH]1 [Example 21, 6-[4-(Azepane-1-sulfonyl)benzyl]-4-trifluoromethyl-1H-quinolin-2-one]
19 | 2 | O=c1cc(C(F)(F)F)c2cc(Cc3ccc(S(=O)(=O)N4CCCc5ccccc54)cc3)ccc2[nH]1 [Example 26, 6-[4-(3,4-Dihydro-2H-quinoline-1-sulfonyl)benzyl]-4-trifluoromethyl-1H-quinolin-2-one]
20 | > 10 | COC(=O)[C@@H]1CCCN1S(=O)(=O)c1ccc(Cc2ccc3oc(=O)cc(C(F)(F)F)c3c2)cc1 [Example 41, 1-[4-(2-Oxo-4-trifluoromethyl-2H-chromen-6-ylmethyl)-benzenesulfonyl]pyrrolidine-2-carboxylic acidmethyl ester]
21 | 2.5 | O=c1cc(C(F)(F)F)c2cc(Cc3ccc(S(=O)(=O)N4CCC(CO)CC4)cc3)ccc2o1 [Example 64, 6-[4-(4-Hydroxymethyl-piperidine-1-sulfonyl)benzyl]-4-trifluoromethylchromen-2-one]
22 | 4.5 | O=c1cc(C(F)(F)F)c2cc(Cc3ccc(S(=O)(=O)N4Cc5ccccc5C4)cc3)ccc2o1 [Example 34, 6-[4-(1,3-Dihydroisoindole-2-sulfonyl)benzyl]-4-trifluoromethylchromen-2-one]
23 | 1.6 | O=c1cc(C(F)(F)F)c2cc(Cc3ccc(S(=O)(=O)N4CCN(c5ccncc5)CC4)cc3)ccc2o1 [Example 50, 6-[4-(4-Pyridin-4-ylpiperazine-1-sulfonyl)benzyl]-4-trifluoromethylchromen-2-one]
24 | > 10 | O=c1cc(C(F)(F)F)c2cc(Cc3ccc(S(=O)(=O)N4CCC5(CC4)OCCO5)cc3)ccc2[nH]1 [Example 6, 6-[4-(1,4-Dioxa-8-azaspiro[4.5]decane-8-sulfonyl)benzyl]-4-trifluoromethyl-1H-quinolin-2-one]
25 | > 10 | O=c1cc(C(F)(F)F)c2cc(Cc3ccc(S(=O)(=O)N4CCSC4)cc3)ccc2o1 [Example 46, 6-[4-(Thiazolidine-3-sulfonyl)benzyl]-4-trifluoromethylchromen-2-one]
26 | > 10 | O=c1cc(C(F)(F)F)c2cc(Cc3ccc(S(=O)(=O)N4CCSC4)cc3)ccc2[nH]1 [Example 12, 6-[4-(Thiazolidine-3-sulfonyl)benzyl]-4-trifluoromethyl-1H-quinolin-2-one]
27 | 5.2 | CC(C)N(CCN1CCN(S(=O)(=O)c2ccc(Cc3ccc4oc(=O)cc(C(F)(F)F)c4c3)cc2)CC1)C(C)C [Example 44, 6-{4-[4-(2-Diisopropylamino-ethyl)piperazine-1-sulfonyl]benzyl}-4-trifluoromethylchromen-2-one]
